Source: patent publication US7521478B2, “Total synthesis of myriaporones” (Pharma Mar, S.A.U., priority 2002, dated 2009)

How the values were obtained:
Assay type in all cases: cell-based
[1] = test system: DU-145; assay: Inhibition of cell growth by colorimetric SRB assay, DU-145; conditions: Homo sapiens, DU-145, 48 hours exposure
How it was run: (§1)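 Absorbance of solubilized bound SRB (490 nm) quantified cell growth and viability after cells were exposed to compound for 48 h. Seeding was 5×10^3 cells per well in RPMI 1640/10% FBS, with 18 h attachment beforehand. GI, TGI and LC were calculated from means of triplicate wells.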

[2] = test system: LNCaP; assay: Inhibition of cell growth by colorimetric SRB assay, LN-caP; conditions: Homo sapiens, LN-caP, 48 hours exposure
How it was run: as §1

[3] = test system: IGROV; assay: Inhibition of cell growth by colorimetric SRB assay, IGROV; conditions: Homo sapiens, 48 hours exposure
How it was run: as §1

[4] = test system: IGROV-ET; assay: Inhibition of cell growth by colorimetric SRB assay, IGROV-ET; conditions: Homo sapiens, IGROV-ET, 48 hours exposure
How it was run: as §1

[5] = test system: SK-BR-3; assay: Inhibition of cell growth by colorimetric SRB assay, SK-BR-3; conditions: SK-BR-3, 48 hours exposure
Source text: The finality of these assays is to interrupt the growth of a “in vitro” tumor cell culture by means a continued exhibition of the cells to the sample to be testing.
Inhibition of Cell Growth by Colorimetric Assay.
A colorimetric type of assay, using sulforhodamine B (SRB) reaction has been adapted for a quantitative measurement of cell growth and viability (following the technique described by P. A. Skehan, et al., J. Natl. CancerInst. 1990, 82, 1107-1112).
This form of assay employs 96 well cell culture microplates of 9 mm diameter (T. Mosmann et al., J. of Immuological Methods 1983, 65, 55-63; G. T. Faircloth et al., J. of Tissue and Culture Methods 1988, 11, 201-205). Most of the cell lines are obtained from American Type Culture Collection (ATCC) derived from different human cancer types.
Cells are maintained in RPMI 1640 10% FBS, supplemented with 0.1 g/L penicillin and 0.1 g/L streptomycin sulfate and then incubated at 37° C., 5% CO2 and 98% humidity. For the experiments, cells were harvested from subconfluent cultures using trypsin and resuspended in fresh medium before plating.
Cells are seeded in 96 well microtiter plates, at 5×10^3 cells per well in aliquots of 195 μL medium, and they are allowed to attach to the plate surface by growing in drug free medium for 18 hours. Afterward, samples are added in aliquots of 5 μL in a ranging from 10 to 10^−8 μg/mL, dissolved in DMSO/EtOH/PBS (0.5:0.5:99). After 48 hours exposure, the antitumor effect are measured by the SRB methodology: cells are fixed by adding 50 μL of cold 50% (wt/vol) trichloroacetic acid (TCA) and incubated for 60 minutes at 4° C. Plates are washed with deionizer water and dried. One hundred μl of SRB solution (0.4% wt/vol in 1% acetic acid) is added to each microliter well and incubated for 10 minutes at room temperature. Unbound SRB is removed by washing with 1% acetic acid. Plates are air dried and bound stain is solubilized with Tris buffer. Optical densities are read on a automated spectrophotometric plate reader at a single wavelength of 490 nm.
The values for mean +/−SD of data from triplicate wells are calculated. Some parameters for cellular responses can be calculated: GI=growth inhibition, TGI=total growth inhibition (cytostatic effect) and LC=cell killing (cytotoxic effect).

[6] = test system: SK-MEL-28; assay: Inhibition of cell growth by colorimetric SRB assay, MEL-28; conditions: Homo sapiens, SK-MEL-28, MEL-28, 48 hours exposure
How it was run: as §1

[7] = test system: A-549; assay: Inhibition of cell growth by colorimetric SRB assay, A-549; conditions: Homo sapiens, A549, A-549, 48 hours exposure
How it was run: as §1

[8] = test system: K-562; assay: Inhibition of cell growth by colorimetric SRB assay, K-562; conditions: Homo sapiens, K562, K-562, 48 hours exposure
How it was run: as §1

[9] = test system: PANC-1; assay: Inhibition of cell growth by colorimetric SRB assay, PANC-1; conditions: Homo sapiens, PANC-1, 48 hours exposure
How it was run: as §1

[10] = test system: HT-29; assay: Inhibition of cell growth by colorimetric SRB assay, HT-29; conditions: Homo sapiens, HT-29, 48 hours exposure
How it was run: as §1

[11] = test system: LoVo; assay: Inhibition of cell growth by colorimetric SRB assay, LOVO; conditions: Homo sapiens, LOVO, 48 hours exposure
How it was run: as §1

[12] = test system: LoVo-Dox; assay: Inhibition of cell growth by colorimetric SRB assay, LOVO-DOX; conditions: Homo sapiens, LOVO-DOX, 48 hours exposure
How it was run: as §1

[13] = test system: HeLa; assay: Inhibition of cell growth by colorimetric SRB assay, HELA; conditions: Homo sapiens, HELA, 48 hours exposure
How it was run: as §1

[14] = test system: HeLa-APL; assay: Inhibition of cell growth by colorimetric SRB assay, HELA-APL; conditions: Homo sapiens; HELA-APL; 48 hours exposure; cell killing; read-out: LC50 (the source's name)
How it was run: as §1

[15] = cell killing, read-out: LC50 (the source's name)
[16] = total growth inhibition, read-out: TGI

SMILES: C/C=C\[C@H](C)[C@H]1OC1(C)[C@@H](O[Si](C)(C)C(C)(C)C)[C@@H](CO)C(=O)[C@H](CO)[C@H](O)CC(=O)CC (stereo partly shown) [20b + 20d]
- GI50 [1]: 20.5 µM
- CC50 [1, 15]: 20.5 µM
- IC (total growth inhibition) [1, 16]: 20.5 µM
- GI50 [2]: 12.4 µM
- CC50 [2, 15]: 20.5 µM
- IC (total growth inhibition) [2, 16]: 20.5 µM
- GI50 [3]: 20.5 µM
- CC50 [3, 15]: 20.5 µM
- IC (total growth inhibition) [3, 16]: 20.5 µM
- GI50 [4]: 20.5 µM
- CC50 [4, 15]: 20.5 µM
- IC (total growth inhibition) [4, 16]: 20.5 µM
- GI50 ([5]; Homo sapiens): 14.9 µM
- CC50 ([5]; Homo sapiens, cell killing, read-out: LC50 (the source's name)): 20.5 µM
- TGI ([5]; total growth inhibition): 2.05E−05 Molar
- GI50 [6]: 20.5 µM
- CC50 [6, 15]: 20.5 µM
- IC (total growth inhibition) [6, 16]: 20.5 µM
- GI50 [7]: 20.5 µM
- CC50 [7, 15]: 20.5 µM
- IC (total growth inhibition) [7, 16]: 20.5 µM
- GI50 [8]: 10.3 µM
- CC50 [8, 15]: 20.5 µM
- IC (total growth inhibition) [8, 16]: 20.5 µM
- GI50 [9]: 9.37 µM
- CC50 [9, 15]: 20.5 µM
- IC (total growth inhibition) [9, 16]: 20.5 µM
- GI50 [10]: 20.5 µM
- CC50 [10, 15]: 20.5 µM
- IC (total growth inhibition) [10, 16]: 20.5 µM
- GI50 [11]: 20.5 µM
- LC50 ([11]; cell killing, read-out: LC50): 20.5 µM
- IC (total growth inhibition) [11, 16]: 20.5 µM
- GI50 [12]: 20.5 µM
- LC50 (concentration for 50% cell killing) ([12]; cell killing, read-out: LC50): 20.5 µM
- IC (total growth inhibition) [12, 16]: 20.5 µM
- GI50 [13]: 20.5 µM
- CC50 [13, 15]: 20.5 µM
- IC (total growth inhibition) [13, 16]: 20.5 µM
- CC50 [14]: 20.5 µM
